Source: patent US20160102074A1, “SUBSTITUTED AMIDE COMPOUNDS” (PFIZER INC., priority 2014, published 2016)
pIC50: −log10 of the molar value.

tested on: human PCSK9; assay: Cell Free PCSK9 Assay (PCSK9-luciferase mRNA translation in HeLa lysate); format: biochemical; conditions: PCSK9-luciferase RNA, 30° C. for 45 minutes, top concentration 100 μM
Description: As defined herein inhibition of translation of PCSK9 mRNA to PCSK9 protein is determined by the “Cell Free PCSK9 Assay” provided herein in the specification. This “Cell Free PCSK9 Assay” is specific to the production of PCSK9 protein from PCSK9 mRNA and therefore detects inhibitors of this translational process rather than other mechanisms by which PCSK9 protein may be reduced.
In order to eliminate the permeability barrier inherent to the WT7 cell-based assays a cell-free system was also established to assess compound activitiy. A sequence containing the full length human PCSK9 (NCBI reference identifier, NM_174936.3, where coding sequence start annotated at position 363) along with 84 additional 3′ nucleotides, comprising a V5 tag and polylinker followed by an in frame modified firefly luciferase reporter (corresponding to nucleotide positions 283-1929 of pGL3, GenBank reference identifier JN542721.1) was cloned into the pT7CFE1 expression vector (ThermoScientific). The construct was then in-vitro transcribed using the MEGAscript T7 Kit (Life Technologies) and RNA subsequently purified incorporating the MEGAclear Kit (Life Technologies) according to manufacturer's protocols. HeLa cell lysates were prepared following the protocols described by Mikami (reference is Cell-Free Protein Synthesis Systems with Extracts from Cultured Human Cells, S. Mikami, T. Kobayashi and H. Imataka; from Methods in Molecular Biology, vol. 607, pages 43-52, Y. Endo et al. (eds.), Humana Press, 2010) with the following modifications. Cells were grown in a 20 L volume of CD293 medium (Gibco 11765-054) with Glutamax increased to 4 mM, penicillin at 100 U/mL and other additions as previously described by Mikami. Growth was in a 50 L wavebag at a rocker speed of 25 rpm and angle 6.1 with 5% CO2 and 0.2 LPM flow rate with cells harvested at a density of 2-2.5e6/mL. Lysates additionally contained 1 tablet of Roche cOmplete-EDTA protease inhibitors per 50 mL with tris(2-carboxyethyl)phosphine (Biovectra) substituted for dithiothreitol, and were clarified by an additional final centrifugation at 10,000 rpm in a Sorvall SS34 rotor at 4° C. for 10 minutes. Compound screening was performed in 384-well plates in an eleven point, 0.5 log dilution format at a top test compound concentration of 100 μM in a final volume of 0.5% DMSO. In additional to these test compound conditions each screening plate also included wells that contained 100 μM of compound example 16 (as depicted in WO2014170786; N-(3-chloropyridin-2-yl)-N-[(3R)-piperidin-3-yl]-4-(3H-[1,2,3]triazolo[4,5-b]pyridin-3-yl)benzamide) as a positive assay control defined as high percent effect, HPE, as well as wells containing media in 0.5% DMSO as a negative treatment control defined as zero percent effect, ZPE. Compounds were incubated at 30° C. for 45 minutes in a solution containing 0.1 μg of purified, in-vitro transcribed RNA together with the cell-free reaction mixture (consisting of 1.6 mM Mg and 112 mM K salts, 4.6 mM tris(2-carboxyethyl)phosphine (Biovectra), 5.0 μL HeLa lysate, 0.2 μL RNAsin (Promega) and 1.0 μL energy mix (containing 1.25 mM ATP (Sigma), 0.12 mM GTP (Sigma), 20 mM creatine phosphate (Santa Cruz), 60 μg/mL creatine phosphokinase (Sigma), 90 μg/mL tRNA (Sigma) and the 20 amino acids (Life Technologies) at final concentrations described by Mikami) and brought up in water to a final volume of 10 μL in water. Upon assay completion 1 μL from each reaction solution was removed and transferred to a second 384-well Optiplate (Perkin Elmer) containing 24 μL of SteadyGlo (Promega) and signal intensity was measured on the Envision (Perkin Elmer) using the enhanced luminescence protocol. To determine compound IC50 the data for HPE and ZPE control wells were first analyzed and the mean, standard deviation and Z prime calculated for each plate. The test compound data were converted into percent effect, using the ZPE and HPE controls as 0% and 100% activity, respectively, applying Equation 1 above. […]

| Structure (SMILES) | pIC50 |
| --- | --- |
| CCOC(=O)O[C@H](C)n1nnnc1-c1c(-c2ccc(C(=O)N(c3ncccc3C)[C@@H]3CCCNC3)cc2)cnn1C [Example 5b, ethyl (R)-1-{5-[1-methyl-4-(4-{(3-methylpyridin-2-yl)[(3R)-piperidin-3-yl]carbamoyl}phenyl)-1H-pyrazol-5-yl]-1H-tetrazol-1-yl}ethyl carbonate] | 5.19 |
| CCOC(=O)O[C@@H](C)n1nnnc1-c1c(-c2ccc(C(=O)N(c3ncccc3C)[C@@H]3CCCNC3)cc2F)cnn1C [Example 8, ethyl (S)-1-{5-[4-(4-{(3-methylpyridin-2-yl)[(3R)-piperidin-3-yl]carbamoyl}-2-fluorophenyl)-1-methyl-1H-pyrazol-5-yl]-1H-tetrazol-1-yl}ethyl carbonate] | 4.96 |
| CCOC(=O)O[C@@H](C)n1nnnc1-c1c(-c2ccc(C(=O)N(c3ncccc3Cl)[C@@H]3CCCNC3)cc2)cnn1C [Example 6, ethyl (S)-1-{5-[1-methyl-4-(4-{(3-chloropyridin-2-yl)[(3R)-piperidin-3-yl]carbamoyl}phenyl)-1H-pyrazol-5-yl]-1H-tetrazol-1-yl}ethyl carbonate] | 4.99 |
| CCOC(=O)O[C@@H](C)n1nnnc1-c1c(-c2ccc(C(=O)N(c3ncccc3C)[C@@H]3CCCNC3)cc2)cnn1C [Example 5a, ethyl (S)-1-{5-[1-methyl-4-(4-{(3-methylpyridin-2-yl)[(3R)-piperidin-3-yl]carbamoyl}phenyl)-1H-pyrazol-5-yl]-1H-tetrazol-1-yl}ethyl carbonate] | 5.09 |
| CCOC(=O)O[C@@H](C)n1nnnc1-c1c(-c2ccc(C(=O)N(c3ncccc3Cl)[C@@H]3CCCNC3)cc2F)cnn1C [Example 7, ethyl (S)-1-{5-[4-(4-{(3-chloropyridin-2-yl)[(3R)-piperidin-3-yl]carbamoyl}-2-fluorophenyl)-1-methyl-1H-pyrazol-5-yl]-1H-tetrazol-1-yl}ethyl carbonate] | 4.87 |
| Cn1ncc(-c2ccc(C(=O)N(c3ncccc3Cl)[C@@H]3CCCNC3)cc2F)c1-c1nn[nH]n1 [Example 3, N-(3-chloropyridin-2-yl)-3-fluoro-4-[1-methyl-5-(2H-tetrazol-5-yl)-1H-pyrazol-4-yl]-N-[(3R)-piperidin-3-yl]benzamide] | 5.55 |

Other lines, results leading:

| pIC50 | Structure (SMILES) |
| --- | --- |
| < 4.13 | CCOC(=O)O[C@@H](C)n1nnnc1-c1c(-c2ccc(C(=O)N(c3ncccc3Cl)[C@@H]3CCCNC3)nc2)cnn1C [Example 10, ethyl (S)-1-{5-[4-(6-{(3-chloropyridin-2-yl)[(3R)-piperidin-3-yl]carbamoyl}pyridin-3-yl)-1-methyl-1H-pyrazol-5-yl]-1H-tetrazol-1-yl}ethyl carbonate] |
| 4.23 | CCOC(=O)O[C@@H](C)n1nnnc1-c1c(-c2ccc(C(=O)N(c3ncccc3C)[C@@H]3CCCNC3)nc2)cnn1C [Example 9, ethyl (S)-1-{5-[1-methyl-4-(6-{(3-methylpyridin-2-yl)[(3R)-piperidin-3-yl]carbamoyl}pyridin-3-yl)-1H-pyrazol-5-yl]-1H-tetrazol-1-yl}ethyl carbonate] |
